# Reference: US20240101576A1, “HETEROCYCLIC INHIBITORS OF EGFR AND/OR HER2, FOR USE IN THE TREATMENT OF CANCER” (Scorpion Therapeutics, Inc., priority 2020, published 2024)
# Legend:
# Format in all cases: cell-based
# [1] = target: T1, EGFR exon 20 FQEA Ins A763_V764 (Ba/F3 cells) (Homo sapiens, UniProt P00533, INS763FQEA); test: Inhibitor activity on EGFR-dependent cell growth (CellTiter-Glo, 72 h), Ba/F3 EGFR exon 20 FQEA Ins; conditions: read-out: BaF3 FQEA IC50
# T1 construct: expressed in transfected cells; host or cells: Ba/F3 (murine pro-B cells), retroviral transduction, puromycin selection, IL3-independent pool
# Method in brief: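 Mutant EGFR drives IL3-independent growth of engineered Ba/F3 pools. L858R cells go in at 400/well, L858R/C797S at 600, and exon 19del or FQEA insertion at 800. After 72 h with compound, plates are equilibrated 15 min at RT. Reagent is added 1:1, followed by 30 min and a luminescence read.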
# [2] = target: T2, EGFR exon 20 SVD Ins D770_N771 (Ba/F3 cells) (Homo sapiens, UniProt P00533, INS770SVD); test: Inhibitor activity on EGFR-dependent cell growth (CellTiter-Glo, 72 h), Ba/F3 EGFR exon 20 SVD Ins; conditions: read-out: BaF3 SVD IC50
# T2 construct: expressed in transfected cells; host or cells: Ba/F3 (murine pro-B cells), retroviral transduction, puromycin selection, IL3-independent pool
# Method in brief: (§1)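 IC50s derive from a sigmoidal dose–response fit of CellTiter-Glo signal. The signal was normalised between […]-treated cells and cell-free medium. Ba/F3 mutant-EGFR cells, seeded at 400–800/well depending on the line, had 72 h of exposure to a 10-point, 3-fold compound series.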
# [3] = target: T3, EGFR exon 20 ASV Ins V769_D770 (Ba/F3 cells) (Homo sapiens, UniProt P00533, INS769ASV); test: Inhibitor activity on EGFR-dependent cell growth (CellTiter-Glo, 72 h), Ba/F3 EGFR exon 20 ASV Ins; conditions: read-out: BaF3 ASV IC50
# T3 construct: expressed in transfected cells; host or cells: Ba/F3 (murine pro-B cells), retroviral transduction, puromycin selection, IL3-independent pool
# Method in brief: as §1
# [4] = target: EGFR exon 19del (Ba/F3 cells) (Homo sapiens, UniProt P00533); test: Inhibitor activity on EGFR-dependent cell growth (CellTiter-Glo, 72 h), Ba/F3 EGFR exon 19del; conditions: Ba/F3 EGFR exon 19del cell growth, read-out: BaF3 Del19 IC50
# Source text: (§2) Example A. Inhibitor Activity on EGFR-Dependent Cell Growth
# (§3) Cell lines are generated by transducing Ba/F3 cells with retroviruses containing vectors with EGFR WT, EGFR L858R, EGFR exon 19del, EGFR L858R/C797S, EGFR exon 20 NPG Ins D770_N771, EGFR exon 20 ASV Ins V769_D770, EGFR exon 20 SVD Ins D770_N771, or EGFR exon 20 FQEA Ins A763_V764 genes and a puromycin selection marker. Transduced cells are selected with puromycin for 7 days and are then be transferred into culture media without Interleukin 3 (IL3). EGFR WT cells are maintained with supplemental EGF. Surviving cells are confirmed to express EGFR by Western blot and maintained as a pool. The IC50 date were included in Table 6 and Table 7.
# (§4) 1.1 Cells are harvested from flask into cell culture medium and the cell number counted.
# (§5) 1.2 Cells are diluted with culture medium to the desired density and 40 μL of cell suspension is added into each well of 384-well cell culture plate and the seeding density is 800 (FQEA, exon 19del), 600 (WT, NPG, L858R/C797S), or 400 (ASV, SVD, L858R) cells/well.
# (§6) 2 Compound Preparation and Treatment
# (§7) 2.1 Test compounds are dissolved to 10 mM in a DMSO stock solution. 45 μL of stock solution is transferred to a 384 polypropylene plate (pp-plate). Perform 3-fold, 10-point dilution via transferring 15 μL compound into 30 μL DMSO using a TECAN (EVO200) liquid handler.
# (§8) 2.2 Spin plates at room temperature at 1,000 RPM for 1 minute.
# (§9) 2.3 Transfer 120 nL of diluted compound from compound source plate into the cell plate.
# (§10) 2.4 After compound treatment for 72 hours, perform CTG detection for compound treatment plates as described in “Detection” section.
# (§11) 3.1 Plates are removed from incubators and equilibrated at room temperature for 15 minutes.
# (§12) 3.2 Thaw the CellTiter Glo reagents and allow to equilibrate to room temperature before the experiment.
# (§13) 3.3 Add 40 μL of CellTiter-Glo reagent into each well (at 1:1 to culture medium). Then place the plates at room temperature for 30 min followed by reading on EnVision.
# (§14) 4.1 Inhibition activity is calculated following the formula below:
# (§15) % Inhibition=100×(LumHC−LumSample)/(LumHC−LumLC) • where HC is obtained from cells treated with 0.1% DMSO only; and LC is obtained from culture medium only.
# (§16) 4.2 2. Calculate the IC50 by fitting the Curve using Xlfit (v5.3.1.3), equation 201.
# (§17) Y=Bottom+(Top−Bottom)/(1+10^((Log IC50−X)*HillSlope))
# [5] = target: T4, EGFR L858R (Ba/F3 cells) (Homo sapiens, UniProt P00533, L858R); test: Inhibitor activity on EGFR-dependent cell growth (CellTiter-Glo, 72 h), Ba/F3 EGFR L858R; conditions: read-out: BaF3 L858R IC50
# T4 construct: expressed in transfected cells; host or cells: Ba/F3 (murine pro-B cells), retroviral transduction, puromycin selection, IL3-independent pool
# Source text: as §2, §3, §4, §5, §6, §7, §8, §9, §10, §11, §12, §13, §14, §15, §16, §17
# [6] = target: T5, EGFR WT (Ba/F3 cells) (Homo sapiens, UniProt P00533); test: Inhibitor activity on EGFR-dependent cell growth (CellTiter-Glo, 72 h), Ba/F3 EGFR WT; conditions: read-out: BaF3 WT IC50
# T5 construct: expressed in transfected cells; host or cells: Ba/F3 (murine pro-B cells), retroviral transduction, puromycin selection, maintained with EGF
# Method in brief: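 This growth assay used Ba/F3 cells that depend on wild-type EGFR and are kept in EGF without IL3. Compounds were made up as 10 mM DMSO stocks and diluted 3-fold over 10 points. 120 nL went onto 600 cells/well. After 72 hours, 40 μL CellTiter-Glo was added and luminescence read on EnVision after 30 min.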
# [7] = target: T3, EGFR exon 20 ASV Ins V769_D770 (Ba/F3 cells); test: Inhibitor activity on EGFR phosphorylation (pEGFR AlphaLISA, 2 h), Ba/F3 EGFR exon 20 ASV Ins; conditions: EGFR phosphorylation, AlphaLISA, 2 hours; read-out: ASV IC50 (pEGFR)
# Method in brief: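 Compound treated for 2 h in IL3-withdrawn Ba/F3 cells carrying mutant EGFR (50K/well) or CUTO14 (12.5K/well); lysate pEGFR by AlphaLISA gave the IC50.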
# [8] = target: T6, EGFR exon 20 NPG Ins D770_N771 (Ba/F3 cells) (Homo sapiens, UniProt P00533, INS770NPG); test: Inhibitor activity on EGFR phosphorylation (pEGFR AlphaLISA, 2 h), Ba/F3 EGFR exon 20 NPG Ins
# T6 construct: expressed in transfected cells; host or cells: Ba/F3 (murine pro-B cells), retroviral transduction, puromycin selection, IL3-independent pool
# Source text: Example B. Inhibitor Activity on EGFR phosphorylation (pEGFR)
# EGFR mutant Ba/F3 cells were generated by transduction with retrovirus containing vectors expressing EGFR L858R, EGFR exon 19del, EGFR L858R/C797S, EGFR exon 20 NPG Ins D770_N771, EGFR exon 20 ASV Ins V769_D770, or EGFR exon 20 SVD Ins D770_N771 genes along with a puromycin selection marker. Transduced cells are selected with puromycin for 7 days and are then be transferred into culture media without Interleukin 3 (IL3). Surviving cells are confirmed to express EGFR by Western blot and maintained as a pool. CUTO14 cells were obtained from Dr. Robert C. Doebele at the University of Colorado. The IC50 date are included in Table 6 and Table 7.
# as §4
# 1.2 Cells are diluted with culture medium to the desired density and 40 μL of cell suspension is added into each well of 384-well cell culture plate and the seeding density is 50K cells/well (Ba/F3) or 12.5K cells/well (CUTO14).
# as §6, §7, §8
# 2.3 Transfer 5 nL of diluted compound from compound source plate into the cell plate.
# 2.4 After compound treatment for 2 hours, perform pEGFR detection by AlphaLISA for compound treatment plates as described in “Detection” section.
# 3 Detection by pEGFR AlphaLISA (Perkin-Elmer)
# 3.1 Plates are removed from incubators and equilibrated at room temperature for 10 minutes, and media was removed
# 3.2 10 μL of lysis buffer is added and plates shaken at 600 rpm for 1 hr.
# 3.3 Prepare acceptor mix just before use and dispense 5 μL of acceptor mix to all the wells. Shake 350 rpm for Ihr in the dark
# 3.4 Prepare donor mix under low light conditions prior to use. Dispense 5 μL of donor mix to all the wells. Mix well on the shaker, seal and wrap in aluminum foil and incubate 1.5 hrs at room temperature in the dark
# 3.5 Transfer 18.5 μL mixture to OptiPlate 384, and read using an Envision. The IC50 date were included in Table 6 and Table 7.
# [9] = target: T6, EGFR exon 20 NPG Ins D770_N771 (Ba/F3 cells); test: Inhibitor activity on EGFR-dependent cell growth (CellTiter-Glo, 72 h), Ba/F3 EGFR exon 20 NPG Ins; conditions: read-out: BaF3 NPG IC50
# Method in brief: as §1
# Chain of EGFR exon 19del (Ba/F3 cells) (P00533 with tags, fused parts or gaps DEL746-750): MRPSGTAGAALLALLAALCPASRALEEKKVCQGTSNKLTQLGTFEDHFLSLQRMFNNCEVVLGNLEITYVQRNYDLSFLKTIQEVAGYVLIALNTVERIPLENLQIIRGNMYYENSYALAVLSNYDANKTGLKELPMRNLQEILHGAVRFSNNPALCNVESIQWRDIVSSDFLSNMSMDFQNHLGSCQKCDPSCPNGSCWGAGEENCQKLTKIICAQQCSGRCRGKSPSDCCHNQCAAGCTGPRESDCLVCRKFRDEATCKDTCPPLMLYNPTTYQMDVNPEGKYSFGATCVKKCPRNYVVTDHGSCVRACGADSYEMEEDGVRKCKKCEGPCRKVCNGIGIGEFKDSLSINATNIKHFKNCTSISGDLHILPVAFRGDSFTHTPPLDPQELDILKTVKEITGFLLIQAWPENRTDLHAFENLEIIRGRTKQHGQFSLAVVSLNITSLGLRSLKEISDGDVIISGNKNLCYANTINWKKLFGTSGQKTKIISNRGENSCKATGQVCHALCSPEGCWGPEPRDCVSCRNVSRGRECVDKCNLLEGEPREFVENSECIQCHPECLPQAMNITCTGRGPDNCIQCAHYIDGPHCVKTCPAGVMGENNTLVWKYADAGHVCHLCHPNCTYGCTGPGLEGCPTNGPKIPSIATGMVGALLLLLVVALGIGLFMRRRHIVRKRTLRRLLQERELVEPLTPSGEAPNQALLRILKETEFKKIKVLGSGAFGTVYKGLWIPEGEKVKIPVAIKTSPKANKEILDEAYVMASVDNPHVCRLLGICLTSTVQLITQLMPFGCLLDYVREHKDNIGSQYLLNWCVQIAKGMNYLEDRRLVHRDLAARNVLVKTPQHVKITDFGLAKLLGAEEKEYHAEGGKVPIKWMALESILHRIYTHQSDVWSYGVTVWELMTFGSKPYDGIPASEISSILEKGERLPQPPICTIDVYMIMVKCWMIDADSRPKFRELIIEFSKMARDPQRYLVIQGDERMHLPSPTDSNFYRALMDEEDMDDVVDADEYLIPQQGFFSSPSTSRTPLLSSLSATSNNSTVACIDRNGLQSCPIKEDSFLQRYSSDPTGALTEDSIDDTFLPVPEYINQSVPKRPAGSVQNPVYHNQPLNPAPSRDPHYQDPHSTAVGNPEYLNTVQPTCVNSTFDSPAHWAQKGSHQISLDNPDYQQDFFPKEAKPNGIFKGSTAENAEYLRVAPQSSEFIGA
# T3 sequence (P00533 with tags, fused parts or gaps INS769ASV): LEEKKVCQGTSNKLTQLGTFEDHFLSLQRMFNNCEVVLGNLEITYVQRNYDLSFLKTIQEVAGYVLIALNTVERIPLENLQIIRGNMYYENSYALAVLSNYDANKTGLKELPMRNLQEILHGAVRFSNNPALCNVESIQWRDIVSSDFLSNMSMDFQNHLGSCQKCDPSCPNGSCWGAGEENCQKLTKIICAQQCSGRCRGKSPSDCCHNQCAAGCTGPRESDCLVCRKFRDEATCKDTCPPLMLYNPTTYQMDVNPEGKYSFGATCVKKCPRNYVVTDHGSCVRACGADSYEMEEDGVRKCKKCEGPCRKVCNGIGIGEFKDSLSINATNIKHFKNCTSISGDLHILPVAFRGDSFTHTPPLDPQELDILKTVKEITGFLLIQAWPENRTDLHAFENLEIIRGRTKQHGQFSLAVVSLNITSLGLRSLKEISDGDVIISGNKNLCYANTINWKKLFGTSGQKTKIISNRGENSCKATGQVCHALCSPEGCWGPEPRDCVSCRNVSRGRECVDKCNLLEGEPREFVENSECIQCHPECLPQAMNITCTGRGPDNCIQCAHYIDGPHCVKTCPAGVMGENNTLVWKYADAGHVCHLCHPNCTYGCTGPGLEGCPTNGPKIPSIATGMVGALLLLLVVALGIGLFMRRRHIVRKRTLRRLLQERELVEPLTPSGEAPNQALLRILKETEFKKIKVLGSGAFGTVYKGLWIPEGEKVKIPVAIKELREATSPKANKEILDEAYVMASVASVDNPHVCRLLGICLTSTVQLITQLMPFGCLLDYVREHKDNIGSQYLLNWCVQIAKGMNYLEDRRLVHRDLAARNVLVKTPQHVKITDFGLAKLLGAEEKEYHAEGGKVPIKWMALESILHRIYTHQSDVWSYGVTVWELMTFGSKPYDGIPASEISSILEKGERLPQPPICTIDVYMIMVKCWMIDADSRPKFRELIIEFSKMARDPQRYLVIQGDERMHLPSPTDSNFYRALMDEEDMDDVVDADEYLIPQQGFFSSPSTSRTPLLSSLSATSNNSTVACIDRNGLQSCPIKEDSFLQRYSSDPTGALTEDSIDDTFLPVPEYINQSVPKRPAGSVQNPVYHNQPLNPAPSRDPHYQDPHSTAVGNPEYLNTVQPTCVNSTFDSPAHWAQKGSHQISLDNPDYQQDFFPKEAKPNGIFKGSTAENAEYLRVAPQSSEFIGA
# T2 sequence (P00533 with tags, fused parts or gaps INS770SVD): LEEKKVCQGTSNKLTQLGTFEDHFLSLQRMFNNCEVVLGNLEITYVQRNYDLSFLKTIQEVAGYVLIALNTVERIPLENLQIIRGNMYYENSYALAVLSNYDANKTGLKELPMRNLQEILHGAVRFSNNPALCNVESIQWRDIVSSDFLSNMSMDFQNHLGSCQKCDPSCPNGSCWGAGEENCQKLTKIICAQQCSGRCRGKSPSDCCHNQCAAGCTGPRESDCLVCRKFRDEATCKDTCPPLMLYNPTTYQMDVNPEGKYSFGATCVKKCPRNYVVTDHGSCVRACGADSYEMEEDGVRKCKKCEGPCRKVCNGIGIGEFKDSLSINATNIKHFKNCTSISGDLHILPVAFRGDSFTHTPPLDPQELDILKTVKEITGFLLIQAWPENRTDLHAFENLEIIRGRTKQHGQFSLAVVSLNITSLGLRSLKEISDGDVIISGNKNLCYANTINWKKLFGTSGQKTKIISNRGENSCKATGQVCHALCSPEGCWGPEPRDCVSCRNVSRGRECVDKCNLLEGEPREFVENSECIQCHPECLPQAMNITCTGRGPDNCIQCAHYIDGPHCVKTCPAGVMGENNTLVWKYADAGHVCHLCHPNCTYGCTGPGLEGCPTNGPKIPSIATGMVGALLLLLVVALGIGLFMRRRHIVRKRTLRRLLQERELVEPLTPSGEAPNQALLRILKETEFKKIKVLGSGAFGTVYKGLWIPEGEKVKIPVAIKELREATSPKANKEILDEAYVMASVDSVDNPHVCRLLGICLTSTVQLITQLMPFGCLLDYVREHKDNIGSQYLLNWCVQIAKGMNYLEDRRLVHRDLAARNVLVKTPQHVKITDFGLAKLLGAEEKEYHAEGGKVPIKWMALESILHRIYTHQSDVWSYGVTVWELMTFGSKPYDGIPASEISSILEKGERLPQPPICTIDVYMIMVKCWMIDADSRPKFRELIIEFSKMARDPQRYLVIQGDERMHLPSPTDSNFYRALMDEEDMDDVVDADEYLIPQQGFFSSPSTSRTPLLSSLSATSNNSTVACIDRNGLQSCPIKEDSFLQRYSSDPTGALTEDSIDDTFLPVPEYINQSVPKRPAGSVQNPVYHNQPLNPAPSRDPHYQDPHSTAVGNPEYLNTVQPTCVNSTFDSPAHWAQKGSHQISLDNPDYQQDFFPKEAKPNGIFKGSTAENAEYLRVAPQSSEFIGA
# T6 sequence (P00533 with tags, fused parts or gaps INS770NPG): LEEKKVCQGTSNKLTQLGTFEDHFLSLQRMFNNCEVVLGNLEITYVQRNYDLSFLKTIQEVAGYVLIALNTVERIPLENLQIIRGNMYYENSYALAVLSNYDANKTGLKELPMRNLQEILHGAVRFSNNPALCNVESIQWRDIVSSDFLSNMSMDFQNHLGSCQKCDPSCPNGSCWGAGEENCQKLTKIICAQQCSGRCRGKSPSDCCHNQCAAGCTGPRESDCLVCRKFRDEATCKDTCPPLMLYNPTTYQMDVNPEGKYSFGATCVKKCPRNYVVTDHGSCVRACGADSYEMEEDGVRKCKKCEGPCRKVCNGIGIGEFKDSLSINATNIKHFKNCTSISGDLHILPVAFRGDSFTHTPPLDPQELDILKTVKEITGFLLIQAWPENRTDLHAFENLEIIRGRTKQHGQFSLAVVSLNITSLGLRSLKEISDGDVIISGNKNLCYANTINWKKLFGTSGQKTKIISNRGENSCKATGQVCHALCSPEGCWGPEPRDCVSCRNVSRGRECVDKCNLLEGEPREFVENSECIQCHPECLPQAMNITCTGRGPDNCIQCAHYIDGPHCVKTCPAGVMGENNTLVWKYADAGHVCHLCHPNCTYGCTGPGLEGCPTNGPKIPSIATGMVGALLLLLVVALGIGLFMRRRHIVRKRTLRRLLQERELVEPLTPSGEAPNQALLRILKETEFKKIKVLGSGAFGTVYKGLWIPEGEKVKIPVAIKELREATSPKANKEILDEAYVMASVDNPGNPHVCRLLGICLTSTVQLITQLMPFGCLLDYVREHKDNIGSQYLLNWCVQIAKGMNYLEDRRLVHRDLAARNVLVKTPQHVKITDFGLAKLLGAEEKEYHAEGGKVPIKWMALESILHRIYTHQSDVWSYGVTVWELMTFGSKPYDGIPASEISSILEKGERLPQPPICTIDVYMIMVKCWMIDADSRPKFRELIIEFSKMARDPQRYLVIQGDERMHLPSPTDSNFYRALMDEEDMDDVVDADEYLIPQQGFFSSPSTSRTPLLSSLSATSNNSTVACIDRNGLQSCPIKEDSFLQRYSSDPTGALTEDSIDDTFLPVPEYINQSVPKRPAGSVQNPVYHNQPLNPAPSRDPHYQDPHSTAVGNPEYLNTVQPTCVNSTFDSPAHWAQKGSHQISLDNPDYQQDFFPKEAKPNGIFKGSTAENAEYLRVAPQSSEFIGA
IC50 [1],IC50 [2],IC50 [3],IC50 [4],IC50 [5],IC50 [6],IC50 [7],IC50 [8],IC50 [9],SMILES
< 100 nM,< 100 nM,< 100 nM,< 100 nM,< 100 nM,100 to 1000 nM,–,–,–,"Cc1ccc2nccc(-c3[nH]c4c(c3Nc3cccc(F)c3C)C(=O)NCC4)c2n1 [Compound 810, 3-[(3-fluoro-2-methylphenyl)amino]-2-(6-methyl-1,5-naphthyridin-4-yl)-1H,5H,6H,7H-pyrrolo[3,2-c]pyridin-4-one]"
100 to 1000 nM,100 to 1000 nM,100 to 1000 nM,–,–,100 to 1000 nM,< 100 nM,< 100 nM,100 to 1000 nM,Nc1nccc(-c2[nH]c3c(c2Nc2cccc(F)c2F)C(=O)NCC3)n1 [compound 202]
100 to 1000 nM,100 to 1000 nM,100 to 1000 nM,–,–,100 to 1000 nM,< 100 nM,< 100 nM,100 to 1000 nM,CCc1c(F)cccc1Nc1c(-c2ccnc(N)n2)[nH]c2c1C(=O)NCC2 [compound 195]
–,100 to 1000 nM,100 to 1000 nM,< 100 nM,< 100 nM,> 1000 nM,–,–,100 to 1000 nM,COCC[C@@H]1CNC(=O)c2c1[nH]c(-c1ccnc(C)n1)c2Nc1cccc(F)c1OC [453a]
100 to 1000 nM,100 to 1000 nM,100 to 1000 nM,–,–,100 to 1000 nM,< 100 nM,< 100 nM,100 to 1000 nM,"CNc1nccc(-c2[nH]c3c(c2Nc2cccc(F)c2OC)C(=O)NCC3)n1 [Compound 691, 3-[(3-fluoro-2-methoxyphenyl)amino]-2-[2-(methylamino)pyrimidin-4-yl]-1H,5H,6H,7H-pyrrolo[3,2-c]pyridin-4-one]"
100 to 1000 nM,100 to 1000 nM,100 to 1000 nM,–,–,> 1000 nM,100 to 1000 nM,< 100 nM,100 to 1000 nM,"COc1c(F)cccc1Nc1c(-c2ccnc(N)c2F)[nH]c2c1C(=O)NCC2 [Compound 687, 2-(2-amino-3-fluoropyridin-4-yl)-3-[(3-fluoro-2-methoxyphenyl)amino]-1H,5H,6H,7H-pyrrolo[3,2-c]pyridin-4-one]"
< 100 nM,< 100 nM,< 100 nM,–,–,< 100 nM,< 100 nM,< 100 nM,< 100 nM,"COCCOc1ccc2nccc(-c3[nH]c4c(c3Nc3cccc(Cl)c3OC)C(=O)NCC4)c2n1 [compound 678, 3-[(3-chloro-2-methoxyphenyl)amino]-2-[6-(2-methoxyethoxy)-1,5-naphthyridin-4-yl]-1H,5H,6H,7H-pyrrolo[3,2-c]pyridin-4-one]"
< 100 nM,< 100 nM,< 100 nM,< 100 nM,< 100 nM,< 100 nM,–,–,–,COCC[C@@H]1CNC(=O)c2c1[nH]c(-c1ccncc1F)c2Nc1cccc(F)c1C [compound 823]
100 to 1000 nM,100 to 1000 nM,100 to 1000 nM,–,–,> 1000 nM,< 100 nM,< 100 nM,100 to 1000 nM,COc1c(Cl)cccc1Nc1c(-c2ccnc3c2OCC(=O)N3)[nH]c2c1C(=O)NCC2 [compound 308]
100 to 1000 nM,100 to 1000 nM,100 to 1000 nM,–,–,> 1000 nM,100 to 1000 nM,< 100 nM,100 to 1000 nM,COc1c(Cl)cccc1Nc1c(-c2ccnc(NC(=O)C3CC3)n2)[nH]c2c1C(=O)NCC2 [compound 221]
< 100 nM,< 100 nM,< 100 nM,< 100 nM,< 100 nM,100 to 1000 nM,–,–,–,"COc1c(F)cccc1Nc1c(-c2ccnc3ccoc23)[nH]c2c1C(=O)NCC2 [Compound 553, 3-[(3-fluoro-2-methoxyphenyl)amino]-2-{furo[3,2-b]pyridin-7-yl}-1H,5H,6H,7H-pyrrolo[3,2-c]pyridin-4-one]"
100 to 1000 nM,100 to 1000 nM,100 to 1000 nM,–,–,> 1000 nM,< 100 nM,< 100 nM,100 to 1000 nM,COc1c(Cl)cccc1Nc1c(-c2ccnc(N)c2)[nH]c2c1C(=O)NCC2 [compound 285]
100 to 1000 nM,< 100 nM,< 100 nM,–,–,100 to 1000 nM,< 100 nM,< 100 nM,< 100 nM,CNc1nccc(-c2[nH]c3c(c2Nc2cccc(Cl)c2OC)C(=O)NCC3)n1 [compound 108]
